Structures are written as SMILES.

One data set deals with human cancer cells. Kind of data set: Cancer cell migration, transwell migration and wound closure models. Format: cell-based. Particulars: for cancer cell migration: model not specified. Here is the method:
Two models of cell migration were used, a transwell migration model and a wound closure model. Migration of cancer and endothelial cells was evaluated using 24-transwell Boyden chamber (Costar, Bedford, Mass.) with a polystyrene membrane (6.5 mm diameter, 10 μm thickness, and 8 μm pore size). Cells were suspended in serum-free media and seeded in the upper compartment of each well (2×10^4 cells/well) in the presence or absence of different compounds at the indicated concentrations. The lower compartment contained 600 μl of serum-free culture media supplemented with growth factors. After an 8-hr incubation at 37° C., cells were fixed and stained with 0.1% crystal violet. Non-migrating cells on the upper surface of the filter were removed, and the stained cells that migrated to the lower side were photographed using a phase-contrast microscope (Nikon, Japan) in five random fields. The cells were lysed with 10% acetic acid, and colorimetric determination was made at 595 nm using Wallac Victor 3 plate reader.
Cancer or endothelial cells were seeded into fibronectin-coated 96-well plates (2×10^4 cells/well). After reaching confluence, cell monolayers were scratched with a pipette tip to obtain a “wound”. The media and dislodged cells were aspirated and replaced by fresh serum-free media in the presence of growth factors, with or without compounds at different concentrations. After an 8-hr incubation at 37° C., cells were photographed using a phase-contrast microscope in five random fields. The width of wounded cell monolayers in images was measured and the inhibition rates of migration were calculated as inhibition rate=[1−(compound-treated group/control group)]×100%, and IC50 value was determined using Origin6 software (MicroCal, LLC, Northampton, Mass.).

The target in a further data set is GRP1 PH domain (Homo sapiens, UniProt O43739). The experiment in a line: FP PIP3/GRP1 PH domain binding assay. Particulars: 15 nM TMR-conjugated PIP3, 100 nM GRP1 PH domain, 30 min.
The target of the next data set is Btk PH domain (Homo sapiens (Human), UniProt Q06187). The experiment in a line: PH domain translocation assay (GFP fusion, plasma membrane). Particulars: PDGF stimulation. Format: cell-based. Here is the method:
Cells were transfected with the corresponding GFP-fusion vectors, serum starved overnight, and incubated with 100 μM PITs or PIT-1 is for 2 hr, followed by stimulation with 100 ng/ml PDGF or 250 ng/ml PMA for 5 min. The translocation was analyzed using fluorescent microscope and was quantitated by counting the number of cells with translocated PH domains in five random fields.
To begin characterizing cellular activity of PITs, a PH domain translocation assay was performed, measuring PIP3-induced association of GFP-fused PH domains with the plasma membrane. This method provides useful means for monitoring status of the PH domain/PIP3 binding in the intact cells. Varnai P et al. (1999) J Biol Chem 274:10983-9. Several PH-domain-containing proteins, which are known to bind PIP3 specifically and efficiently, were examined. […] Oikawa T et al. (2004) Nat Cell Biol 6:420-6.

Data set [1] relates to differentiated HL-60 cells. Kind of data set: fMLP-stimulated cell polarization. Format: cell-based. Particulars: 100 μM, 2 hr. As for the experimental part:
In another set of experiments, the ability of PITs to inhibit fMLP-stimulated HL-60 cell polarization was examined. Differentiated HL-60 cells were treated with PIT-1, PIT-2, PIT-1i-1, or PIT-1i-2, each at 100 μM for 2 hr, followed by stimulation with 100 nM fMLP for 3 min. Actin was stained and analyzed using fluorescent microscopy. The number of the polarized cells was counted in five random fields.

The next data set concerns HUVEC. The experiment in a line: Endothelial tube formation assay on Matrigel. Format: cell-based, human. Particulars: P>0.05. As for the experimental part:
The tube formation assay was performed in 96-well plates. Wells were pre-coated with 70 μl of the Matrigel basement membrane matrix (BD Biosciences) per well for 1 hr at 37° C. HUVEC were suspended in serum-free M199 medium and plated on Matrigel at a density of 2×10^4 cells per well. PIT-1 was added at indicated concentrations (3.125-100 μM). After an 8 hr incubation at 37° C., phase-contrast images of the endothelial tubes were obtained using a Nikon TE2000 microscope, and tube formation was assessed by counting the number of closed tubes in five random fields from each well.

For data set [2], the system named is SUM159 cells transfected with VAV2 or WAVE2. Kind of data set: Lamellipodia formation and membrane translocation in VAV/WAVE-transfected cells. It counts as cell-based, human. Conditions: 100 μM, 2 hr. The source says:
Of the PIP3-binding actin-regulating factors, VAV and WAVE family proteins have been identified as important PIP3-interacting proteins regulating actin polymerization, lamellipodia formation, and cell motility in response to growth factor stimulation. Hornstein I et al. (2004) Cell Signal 16:1-11; Oikawa T et al. (2004) Nat Cell Biol 6:420-6. Therefore, the effect of PIT-1 on the cellular localization of GFP fusions of VAV and WAVE proteins was investigated. SUM159 cells transfected with VAV2 or WAVE2 GFP vectors were treated with PIT-1, PIT-2, PIT-1i-1, or PIT-1i-2 (100 μM) for 2 hr. Alternatively, cells were serum starved overnight, treated with these same compounds and then stimulated with PDGF 100 ng/ml for 15 min. Subsequently, actin fibers were stained with TRITC-phalloidin and analyzed using fluorescent microscopy. The numbers of cell ruffles/lamellipodia were counted in five random fields.

Chain of Btk PH domain (Q06187 3-133): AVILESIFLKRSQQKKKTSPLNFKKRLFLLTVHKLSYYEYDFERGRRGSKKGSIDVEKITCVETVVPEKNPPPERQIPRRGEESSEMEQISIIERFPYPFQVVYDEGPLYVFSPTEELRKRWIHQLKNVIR

Take `O=C(NC(=S)Nc1cc([N+](=O)[O-])cc(Cl)c1O)c1ccccc1` [PIT-1]: the “growth factor-induced transwell migration” value in the data set on human cancer cells (dose-dependent) was “substantially inhibited”. Further, the cancer cell migration result in the data set with human cancer cells is “much stronger than that of Akt kinase inhibitor VIII”. Further, the IC50 (in general, the concentration that inhibits the measured activity by half) at GRP1 PH domain was determined as 40.3 ± 2.8 µM. For the same compound, the “plasma membrane translocation of Btk PH domain” value (“plasma membrane translocation” for short) at Btk PH domain is “significantly inhibited the translocation”. Also, in data set [1], the “fMLP-stimulated polarization of differentiated HL-60 neutrophils” value is given as “efficient inhibition”. Also, in the data set on HUVEC, the “cell viability under tube formation conditions” value is “No loss of cell viability”.

Regarding `COc1c(Cl)cc([N+](=O)[O-])cc1NC(=S)NC(=O)c1ccccc1` [PIT-1i-2], in the data set with human cancer cells, the cancer cell migration entry is “neither PIT-1i-1 nor PIT-1i-2 was active”. The IC50 on GRP1 PH domain was > 200 µM. The “plasma membrane translocation” value on Btk PH domain was “inactive”. Further, the “lamellipodia formation and membrane translocation of VAV/WAVE proteins” value in data set [2] was “inactive”.

For `O=C(NC(=O)c1ccccc1)Nc1cc([N+](=O)[O-])cc(Cl)c1O` [PIT-1i-1, reference compound], the cancer cell migration result with human cancer cells was “neither PIT-1i-1 nor PIT-1i-2 was active”. The IC50 at GRP1 PH domain was > 200 µM. Moreover, on Btk PH domain, the “plasma membrane translocation” value is “inactive”. Further, the “lamellipodia formation and membrane translocation of VAV/WAVE proteins” value in data set [2] was “inactive”.
